Assay [1] concerns MCF7. The assay can be described thus: Anticancer activity against Homo sapiens (human) MCF7 cells assessed as inhibition of cell proliferation after 24 hr by MTT assay. In kind it is functional, cell-based. Conditions: MCF7, 24 h. A general note: Tetrazolium dyes change colour on reduction, which living cells bring about.
Assay [2] concerns HEK293. The assay can be described thus: Cytotoxicity against Homo sapiens (human) HEK293 cells assessed as inhibition of cell proliferation after 24 hr by MTT assay. In kind it is cell-based. The settings on record: HEK293, 24 h.
The nature of assay [3]: Anticancer activity against Homo sapiens (human) NCI lung cancer cell assessed as inhibition of cell proliferation after 24 hr by MTT assay. In kind it is functional, cell-based. The settings on record: Cancer cell lines.

pIC50: −log10 of the molar value. Some results are limits rather than exact numbers.

Turning to `CN1CCN(c2nc(-c3ccccc3)c(-c3nc4ccccc4c(=O)n3-c3ccccc3)s2)CC1`, the results for the negative-log IC50 (pIC50) in assay [1], in assay [2] and in assay [3] were 5.23, 6.07 and 5.00, respectively.
Taken in the same sequence, the figures for `O=C(c1ccccc1)N1CCN(c2nc(-c3ccccc3)c(-c3nc4ccccc4c(=O)n3-c3ccccc3)s2)CC1` were 4.70, 6.38 and 4.87.
Take `O=c1c2ccccc2nc(-c2sc(N3CCNCC3)nc2-c2ccccc2)n1-c1ccccc1`: the pIC50 (usually −log10 of the IC50, conventionally taken in molar units) was 4.33 in assay [1], 6.13 in assay [2] and 5.58 in assay [3].
Taken in the same sequence, the figures for `CN1CCN(c2nc(-c3ccccc3)c(-c3nc4ccccc4c(=O)n3Nc3ccccc3)s2)CC1` were 6.80, 5.52 and 5.95.
Taken in the same sequence, the figures for `O=C(c1ccccc1)N1CCN(c2nc(-c3ccccc3)c(-c3nc4ccccc4c(=O)n3Nc3ccccc3)s2)CC1` were 5.60, 6.10 and 5.25.
Take `COc1ccc(Nn2c(-c3sc(N4CCNCC4)nc3-c3ccccc3)nc3ccccc3c2=O)cc1`: the figures for the pIC50 in assay [1], in assay [2] and in assay [3] were 4.94, 5.95 and 5.53, respectively.
Taken in the same sequence, the figures for `O=C(c1ccccc1)N1CCN(c2nc(-c3ccccc3)c(-c3nc4ccccc4c(=O)n3-c3ccc(Cl)cc3)s2)CC1` were under 4.00, 6.16 and 4.81.
In the case of `CN1CCN(c2nc(-c3ccccc3)c(-c3nc4ccccc4c(=O)n3-c3ccc(Cl)cc3)s2)CC1`, the pIC50 in assay [1] is 5.71; in assay [2] it was 6.03; in assay [3], under 4.00.
Taken in the same sequence, the figures for `O=c1c2ccccc2nc(-c2sc(N3CCNCC3)nc2-c2ccccc2)n1-c1ccc(Cl)cc1` were under 4.00, 4.84 and 5.21.
On to `COc1ccccc1-n1c(-c2sc(N3CCN(C)CC3)nc2-c2ccccc2)nc2ccccc2c1=O`, for which the pIC50 in assay [1] is 5.82; in assay [2], 6.17; in assay [3], 5.03.
Taken in the same sequence, the figures for `COc1ccccc1-n1c(-c2sc(N3CCNCC3)nc2-c2ccccc2)nc2ccccc2c1=O` were 5.43, 6.26 and 5.36.
Taken in the same sequence, the figures for `COc1ccccc1-n1c(-c2sc(N3CCN(C(=O)c4ccccc4)CC3)nc2-c2ccccc2)nc2ccccc2c1=O` were 6.18, 5.64 and 5.23.
Taken in the same sequence, the figures for `CN1CCN(c2nc(-c3ccccc3)c(-c3nc4ccccc4c(=O)n3-c3ccccc3[N+](=O)[O-])s2)CC1` were 5.05, 6.09 and 5.17.
As to `O=c1c2ccccc2nc(-c2sc(N3CCNCC3)nc2-c2ccccc2)n1-c1ccccc1[N+](=O)[O-]`, the negative-log IC50 (pIC50) in assay [1] is 5.23; in assay [2], 5.97; in assay [3], 5.08.
Taken in the same sequence, the figures for `O=C(c1ccccc1)N1CCN(c2nc(-c3ccccc3)c(-c3nc4ccccc4c(=O)n3-c3ccccc3[N+](=O)[O-])s2)CC1` were 5.19, 6.14 and 4.96.
Taken in the same sequence, the figures for `O=c1[nH]cc(F)c(=O)[nH]1` [FLUOROURACIL] were 5.90, 5.67 and 5.64.
Taken in the same sequence, the figures for `CN(Cc1cnc2nc(N)nc(N)c2n1)c1ccc(C(=O)N[C@@H](CCC(=O)O)C(=O)O)cc1` [METHOTREXATE] were 5.65, 5.90 and 5.66.

For the origin of these results see ChEMBL document CHEMBL3045216, “Synthesis and screening of 2-(2-(4-substituted piperazine-1-yl)-5-phenylthiazol-4-yl)-3-aryl quinazolinone derivatives as anticancer agents” (Med Chem Res, 2013).
